Article PMC5356695, “A phase 1 study of oral ridaforolimus in pediatric patients with advanced solid tumors” (Oncotarget, 2016)
Like-named read-outs stand apart in the source and are kept apart here.

Tested on: pediatric patients with advanced solid tumors
Conditions: for Leukopenia (treatment-related AE): laboratory values only
Protocol: This phase 1, multicenter, open-label study was conducted at a total of 8 study sites (3 study sites in the United States and 5 Innovative Therapies for Children with Cancer [ITCC] Consortium centers [2 in the United Kingdom and 3 in France]) between January 31, 2012, and the data cutoff, January 14, 2014 (ClinicalTrials.gov identifier NCT01431534; European Clinical Trials Database [EudraCT] number 2011-000729-55). An enteric-coated tablet formulation of ridaforolimus was orally administered for 5 consecutive days and not administered for 2 consecutive days per week in 28-day cycles until progression, unacceptable toxicity, or consent withdrawal. […] Dose escalation was conducted by using a modified toxicity probability intervals method that targeted a 30% DLT rate and started at 22 mg/m^2 (the equivalent of the adult RP2D [27], a 40-mg dose in adults with a BSA of 1.8 m^2). […] Dosing was adjusted based on BSA and rounded to the nearest 10-mg tablet. Patients were to be treated at sequentially rising dose levels until a preliminary MTD was identified.
Toxicity was graded according to the National Cancer Institute Common Terminology Criteria for Adverse Events, version 4.0 [42]. Safety data were reported for all patients who received at least 1 dose of the study drug. […] Once the RP2D of ridaforolimus was defined, an expansion cohort to be treated at the RP2D was planned to obtain additional safety, tolerability, and pharmacokinetic data.

Structure (SMILES): CO[C@H]1C[C@@H]2CC[C@@H](C)[C@@](O)(O2)C(=O)C(=O)N2CCCC[C@H]2C(=O)O[C@H]([C@H](C)C[C@@H]2CC[C@@H](OP(C)(C)=O)[C@H](OC)C2)CC(=O)[C@H](C)/C=C(\C)[C@@H](O)[C@@H](OC)C(=O)[C@H](C)C[C@H](C)/C=C/C=C/C=C/1C [ridaforolimus]
- Increased alkaline phosphatase (treatment-related AE) (33 mg/m^2 n = 13, grades 3–4): 0 n (%)
- Increased bilirubin (treatment-related AE) (33 mg/m^2 n = 13, grades 3–4): 0 n (%)
- Increased γ-glutamyltransferase (treatment-related AE) (33 mg/m^2 n = 13, grades 3–4): 1 (8) n (%)
- Lymphopenia (treatment-related AE) (33 mg/m^2 n = 13, grades 3–4): 1 (8) n (%)
- Nausea (treatment-related AE) (33 mg/m^2 n = 13, grades 3–4): 0 n (%)
- Neutropenia (treatment-related AE) (33 mg/m^2 n = 13, grades 3–4): 1 (8) n (%)
- Oral herpes (treatment-related AE) (33 mg/m^2 n = 13, grades 3–4): 0 n (%)
- Patients with ≥1 treatment-related adverse event (33 mg/m^2 n = 13, grades 3–4): 5 (38) n (%)
- Photophobia (treatment-related AE) (33 mg/m^2 n = 13, grades 3–4): 0 n (%)
- Rash (treatment-related AE) (33 mg/m^2 n = 13, grades 3–4): 0 n (%)
- Stomatitis (treatment-related AE) (33 mg/m^2 n = 13, grades 3–4): 0 n (%)
- Thrombocytopenia (treatment-related AE) (33 mg/m^2 n = 13, grades 3–4): 1 (8) n (%)
- Vomiting (treatment-related AE) (33 mg/m^2 n = 13, grades 3–4): 0 n (%)
- Leukopenia (treatment-related AE) (33 mg/m^2 n = 13, grades 3–4): 0 n (%)
- Anemia (treatment-related AE) (Total N = 20, any grade): 8 (40) n (%)
- Decreased appetite (treatment-related AE) (Total N = 20, any grade): 2 (10) n (%)
- Decreased weight (treatment-related AE) (Total N = 20, any grade): 2 (10) n (%)
- Diarrhea (treatment-related AE) (Total N = 20, any grade): 2 (10) n (%)
- Dry mouth (treatment-related AE) (Total N = 20, any grade): 2 (10) n (%)
- Dysgeusia (treatment-related AE) (Total N = 20, any grade): 3 (15) n (%)
- Epistaxis (treatment-related AE) (Total N = 20, any grade): 2 (10) n (%)
- Fatigue (treatment-related AE) (Total N = 20, any grade): 9 (45) n (%)
- Headache (treatment-related AE) (Total N = 20, any grade): 3 (15) n (%)
- Hypercholesterolemia (treatment-related AE) (Total N = 20, any grade): 9 (45) n (%)
- Hyperglycemia (treatment-related AE) (Total N = 20, any grade): 2 (10) n (%)
- Hypertriglyceridemia (treatment-related AE) (Total N = 20, any grade): 10 (50) n (%)
- Hypocalcemia (treatment-related AE) (Total N = 20, any grade): 2 (10) n (%)
- Hypokalemia (treatment-related AE) (Total N = 20, any grade): 2 (10) n (%)
- Hypophosphatemia (treatment-related AE) (Total N = 20, any grade): 5 (25) n (%)
- Increased ALT (treatment-related AE) (Total N = 20, any grade): 10 (50) n (%)
- Increased AST (treatment-related AE) (Total N = 20, any grade): 8 (40) n (%)
- Increased alkaline phosphatase (treatment-related AE) (Total N = 20, any grade): 2 (10) n (%)
- Increased bilirubin (treatment-related AE) (Total N = 20, any grade): 2 (10) n (%)
- Increased γ-glutamyltransferase (treatment-related AE) (Total N = 20, any grade): 5 (25) n (%)
- Lymphopenia (treatment-related AE) (Total N = 20, any grade): 2 (10) n (%)
- Nausea (treatment-related AE) (Total N = 20, any grade): 6 (30) n (%)
- Neutropenia (treatment-related AE) (Total N = 20, any grade): 6 (30) n (%)
- Oral herpes (treatment-related AE) (Total N = 20, any grade): 2 (10) n (%)
- Patients with ≥1 treatment-related adverse event (Total N = 20, any grade): 19 (95) n (%)
- Photophobia (treatment-related AE) (Total N = 20, any grade): 3 (15) n (%)
- Rash (treatment-related AE) (Total N = 20, any grade): 2 (10) n (%)
- Stomatitis (treatment-related AE) (Total N = 20, any grade): 15 (75) n (%)
- Thrombocytopenia (treatment-related AE) (Total N = 20, any grade): 13 (65) n (%)
- Vomiting (treatment-related AE) (Total N = 20, any grade): 3 (15) n (%)
- Leukopenia (treatment-related AE) (Total N = 20, any grade): 7 (35) n (%)
- Anemia (treatment-related AE) (Total N = 20, grades 3–4): 0 n (%)
- Decreased appetite (treatment-related AE) (Total N = 20, grades 3–4): 0 n (%)
- Decreased weight (treatment-related AE) (Total N = 20, grades 3–4): 0 n (%)
- Diarrhea (treatment-related AE) (Total N = 20, grades 3–4): 0 n (%)
- Dry mouth (treatment-related AE) (Total N = 20, grades 3–4): 0 n (%)
- Dysgeusia (treatment-related AE) (Total N = 20, grades 3–4): 0 n (%)
- Epistaxis (treatment-related AE) (Total N = 20, grades 3–4): 0 n (%)
- Fatigue (treatment-related AE) (Total N = 20, grades 3–4): 0 n (%)
- Headache (treatment-related AE) (Total N = 20, grades 3–4): 0 n (%)
- Hypercholesterolemia (treatment-related AE) (Total N = 20, grades 3–4): 1 (5) n (%)
- Hyperglycemia (treatment-related AE) (Total N = 20, grades 3–4): 0 n (%)
- Hypertriglyceridemia (treatment-related AE) (Total N = 20, grades 3–4): 1 (5) n (%)
- Hypocalcemia (treatment-related AE) (Total N = 20, grades 3–4): 0 n (%)
- Hypokalemia (treatment-related AE) (Total N = 20, grades 3–4): 0 n (%)
- Hypophosphatemia (treatment-related AE) (Total N = 20, grades 3–4): 1 (5) n (%)
- Increased ALT (treatment-related AE) (Total N = 20, grades 3–4): 5 (25) n (%)
- Increased AST (treatment-related AE) (Total N = 20, grades 3–4): 1 (5) n (%)
- Increased alkaline phosphatase (treatment-related AE) (Total N = 20, grades 3–4): 0 n (%)
- Increased bilirubin (treatment-related AE) (Total N = 20, grades 3–4): 0 n (%)
- Increased γ-glutamyltransferase (treatment-related AE) (Total N = 20, grades 3–4): 1 (5) n (%)
- Lymphopenia (treatment-related AE) (Total N = 20, grades 3–4): 1 (5) n (%)
- Nausea (treatment-related AE) (Total N = 20, grades 3–4): 0 n (%)
- Neutropenia (treatment-related AE) (Total N = 20, grades 3–4): 1 (5) n (%)
- Oral herpes (treatment-related AE) (Total N = 20, grades 3–4): 1 (5) n (%)
- Patients with ≥1 treatment-related adverse event (Total N = 20, grades 3–4): 9 (45) n (%)
- Photophobia (treatment-related AE) (Total N = 20, grades 3–4): 0 n (%)
- Rash (treatment-related AE) (Total N = 20, grades 3–4): 0 n (%)
- Stomatitis (treatment-related AE) (Total N = 20, grades 3–4): 0 n (%)
- Thrombocytopenia (treatment-related AE) (Total N = 20, grades 3–4): 2 (10) n (%)
- Vomiting (treatment-related AE) (Total N = 20, grades 3–4): 0 n (%)
- Leukopenia (treatment-related AE) (Total N = 20, grades 3–4): 0 n (%)
- Anemia, treatment-related (all patients, N = 20): 40%
- Fatigue, treatment-related (all patients, N = 20): 45%
- Hypercholesterolemia, treatment-related (all patients, N = 20): 45%
- Hypertriglyceridemia, treatment-related (all patients, N = 20): 50%
- Increased ALT, treatment-related (all patients, N = 20): 50%
- Increased aspartate aminotransferase (AST), treatment-related (all patients, N = 20): 40%
- Leukopenia, treatment-related (all patients, N = 20): 35%
- Nausea, treatment-related (all patients, N = 20): 30%
- Neutropenia, treatment-related (all patients, N = 20): 30%
- Patients with at least 1 treatment-related adverse event (all patients, N = 20): 95%
- Serious adverse events related to study treatment (all patients, N = 20): 15%
- Stomatitis, treatment-related (all patients, N = 20): 75%
- Thrombocytopenia, treatment-related (all patients, N = 20): 65%
- Treatment-related grade 3/4 increased ALT (all patients, N = 20): 25%
- Treatment-related grade 3/4 thrombocytopenia (all patients, N = 20): 10%
- Treatment-related grade 3/4 adverse events (all patients, N = 20 (9 patients)): 45%
- Serious adverse events (all patients, N = 20 (12 patients), most disease related): 60%
- Time to DLT onset, days (dose level 3, 33 mg/m^2, cycle 1): 22 (cycle 1) days
- Recommended phase 2 dose (RP2D) for oral ridaforolimus in children (once daily 5 days/week): 33 mg/m^2
- Deaths / grade 5 adverse events related to ridaforolimus (three deaths during the study): No deaths were considered related to ridaforolimus
